Assays:
[1] = system: endogenous LUBAC (HOIP, HOIL-1, SHARPIN); test: coimmunoprecipitation of endogenous LUBAC components with HA-tagged OTULIN; format: cell-based; conditions: HA-OTULIN variants in HEK293T cells, anti-HA IP, western blot
Method: Transfected HEK293T or U2OS and NOD2 cells were lysed in the presence of protease and phosphatase inhibitors. Clarified lysates were incubated overnight with anti-V5 and anti-HA-agarose resin. […]
(§1) siOTULIN: […], siMM […]
Immunoprecipitation of HOIP-V5 and HA-OTULIN
HEK293T or U2OS/NOD2 cells were transfected as indicated. The cells were lysed in IP buffer buffer (25 mM HEPES pH 7.4, 150 mM KCl, 2 mM MgCl2, 1 mM EGTA, 0.5% (v/v) Triton X-100) supplemented with 5 mM NEM (Sigma-Aldrich), cOmplete protease inhibitor cocktail (Roche) and PhosSTOP
(Roche). After 30 minutes on ice, the lysates were cleared by centrifugation and incubated overnight at 4 °C with anti-V5-agarose resin or anti-HA-agarose resin. The beads were washed four times in ice-cold IP buffer and the precipitated material was eluted with 0.2 M glycine, pH 2.5. […]

[2] = system: HOIP PUB domain (15N HOIP 1-184); test: NMR binding (chemical shift perturbation) to 15N-labeled HOIP PUB domain; parameters: species or system Human; conditions: 15N BEST-TROSY NMR, 100 μM 15N HOIP 1-184, 20 mM phosphate pH 6.8, 50 mM NaCl, 2 mM DTT, 298K
Method: Standard triple-resonance experiments (HNCA, HN(CO)CA, HNCACB, CBCA(CO)NH, and HBHA(CO)NH) were acquired for the assignment of HOIP resonances. Constant time ^13C and ^13C-HSQC were acquired for the methyl and aromatic regions. In addition, (HB)CB(CGCD)HD and (HB)CB(CGCDCE)HE experiments coupled the Cβ of tyrosine resonances to the Hδ and Hε positions of the tyrosine ring, respectively.
Fluorescence polarization binding assays
10 µl of 100 nM FITC-Ahx peptides of either OTULIN (49-67) or p97 (797-806) were aliquoted into a 384-well low volume plate (Corning). Serial dilutions of HOIP PUB into FP assay buffer (20 mM Tris pH 7.4, 100 mM NaCl, 1 mM DTT) were prepared and 10 µl of this was aliquoted to FITC-Ahx peptide-containing wells. Fluorescence polarization was recorded on a PheraStar plate reader (BMG Labtech) using an optics module with $ex = 485 nm and $em = 520 nm. To derive binding constants (KD), polarization values were fitted to a one-site binding model using Graphpad Prism 5.
Nuclear Magnetic Resonance Spectroscopy
Uniformly labeled 15N or 13C, 15N samples of HOIP were prepared following growth in 2M9 medium supplemented with either 15N NH4Cl or 13C glucose.
Proteins were purified as described above and all samples were exchanged into NMR sample buffer (20 mM Na2HPO4/NaH2PO4 pH 6.8, 50 mM NaCl, 2 mM DTT). Lyophilized OTULIN and p97 PIM peptides were reconstituted in NMR sample buffer and the pH adjusted to pH 6.8 prior to use. NMR data were acquired at 298K on Bruker Avance III 600 MHz and Avance2+ 700
MHz spectrometers, equipped with cryogenic triple resonance TCI probes.
Standard triple resonance experiments (HNCA, HN(CO)CA, HNCACB, CBCA(CO)NH, HBHA(CO)NH) were acquired for the assignment of backbone
HOIP resonances. In addition, constant-time (ct) 13C and 13C-HSQC were acquired for the methyl and aromatic regions. For assignment of the H",H# resonances of HOIP tyrosines, (HB)CB(CGCD)HD and (HB)CB(CGCDCE)HE spectra were acquired, which coupled the C$ position of the tyrosine resonances to the H"/H# position of the tyrosine ring respectively. […]

HOIP 1-184 = test: analytical size-exclusion chromatography binding; parameters: species or system Human; conditions: Superdex 75; 30 µM HOIP, 25 µM OTULIN, 20 mM Tris pH 7.4, 150 mM NaCl, 2 mM DTT, room temperature 15 min
Method: All mutations were generated by site directed mutagenesis using the QuikChange method with KOD HotStart DNA polymerase.
Protein expression and purification
HOIP PUB domain constructs were expressed in Rosetta2 (DE3) pLacI cells.
Cells were grown at 30 °C in 2 xTY medium supplemented with 30 µg/ml kanamycin and 34 µg/ml chloramphenicol to an OD600 of 0.8. The culture was cooled to 18 °C prior to overnight induction with 400 µM IPTG. Cells were resuspended and lysed by sonication in lysis buffer (20 mM Tris pH 7.4, 300 mM NaCl, 50 mM imidazole, 2 mM #-mercaptoethanol, lysozyme, DNaseI
(Sigma) and protease inhibitor cocktail (Roche)). HOIP was purified by immobilized metal affinity chromatography using a HisTrap column (GE Life Sciences). The His6-tag was cleaved by overnight incubation with 3C protease. The protein was buffer exchanged into 20 mM Tris pH 8.5, 2 mM DTT and purified further by anion exchange chromatography (ResourceQ, GE Life Sciences). Eluted HOIP was then subjected to size exclusion chromatography (HiLoad 16/60 Superdex 75, GE Life Sciences) in buffer containing 20 mM Tris pH 8.5, 150 mM NaCl, 2 mM DTT. The resultant fractions were judged to be 99% pure following SDS-PAGE analysis and flash frozen. OTULIN was expressed and purified according to (Keusekotten et al., […]
kind gift from Mark Allen (MRC LMB).
Analytical size exclusion chromatography binding studies […]

[3] = system: LUBAC-induced NFκB activity; test: NFκB luciferase reporter assay (LUBAC-induced); format: cell-based; conditions: HEK293T cells; for inhibition of NFκB activity induced by HOIP PIM pocket mutants (N102D, Y82A) + HOIL-1 (in words): compared with wild-type HOIP
Method: Cells were cotransfected with the NFκB luciferase reporter construct pBIIXluc and the thymidine kinase-renilla luciferase construct in addition to other vectors used in the study. After 24 hr, cells were lysed in passive lysis buffer (Promega), and luciferase activity was recorded. Protein expression levels were determined by western blotting of cell lysates. […]
as §1
Luciferase reporter assays
Cells were co-transfected with the NF!B luciferase reporter construct pBIIXluc and the thymidine kinase-renilla luciferase construct to enable normalization of transfection efficiency. Cells were co-transfected with additional plasmids as indicated. After 24 h cells were lysed in 75 %L passive lysis buffer (Promega) and luciferase activity was measured on a FLUOstar Omega
Microplate Reader (BMG LABTECH GmbH, Offenburg, Germany) using the DualLuciferase ® Assay System (Promega) according to the manufacturer’s instructions. Protein expression levels were determined by SDS-PAGE and Western blotting of cell lysates as indicated. The data shown represents mean ± SEM. A two-tailed Student´s t -test was applied to evaluate statistical

[4] = system: HOIP (Met1-linked polyUb); test: HOIP autoubiquitination, purification of endogenous Met1-polyUb conjugates (M1-SUB pulldown); format: cell-based; conditions: U2OS/NOD2 cells, ectopic OTULIN variants, basal, identical with L18-MDP or TNF, immunoblot
Excerpt: Antibodies and affinity resin
The following antibodies and reagents were used according to the manufacturers’ instructions: anti-HA-agarose resin (A2095), anti-V5-agarose resin (A7345) and rabbit polyclonal anti-HOIP/RNF31 (SAB2102031, Sigma-Aldrich), rat monoclonal anti-HA (#11867423991, Roche Diagnostics, Burgess Hill, UK), mouse monoclonal anti-ubiquitin (IMG-5021, Imgenex, San Diego, CA), rabbit polyclonal anti-SHARPIN (#14626-1-AP, ProteinTech, Chicago, IL), rabbit polyclonal anti-RBCK1/HOIL-1 (NBP1-88301, Novus Biologicals, Littleton, CO), mouse monoclonal anti-V5 (MCA1360, AbD Serotec, Kidlington, UK), mouse monoclonal anti-$-actin (MAB1501, Chemicon, Millipore, Billerica, MA), rabbit polyclonal anti-HOIL-1, rabbit polyclonal anti-HOIP/RNF31
(Sigma), mouse monoclonal anti-p97 (Thermo Scientific). The
Fam105B/OTULIN antibody was previously described (Keusekotten et al., 2013). […]
HEK293ET, RPE1 and U2OS cells were collected, washed with PBS and lysed on ice for 30 minutes in SEC cell extraction buffer (150 mM NaCl, 50 mM Tris-HCl pH 7.4, 1 mM MgCl2, 1 mM DTT, 0.3% NP40, protease and (Roche)). […] In total 3.1 mg protein extract was analyzed on a Superdex 200 10/300 GL column (GE Life Sciences). […]

[5] = system: HOIP (Met1-linked polyUb); conditions: overexpression of catalytically inactive OTULIN, ref Fiil et al., 2013, Keusekotten et al.; cited from earlier work
Excerpt: So far, the cellular consequences of OTULIN-LUBAC interaction are unclear. […] We wondered whether this depended on the formation of the OTULIN-HOIP complex or whether OTULIN would act in trans on the complex. When coexpressed with HOIL-1, HOIP PUB binding mutants autoubiquitinated in cells exp ...

OTULIN: full-length OTULIN (aa 1–352), Met1-specific deubiquitinase
coimmunoprecipitation of endogenous LUBAC components (in words) [1]: coimmunoprecipitated all proteins from the endogenous LUBAC complex
binding / chemical shift perturbations of HOIP PUB domain (in words) [2]: pattern of HOIP CSPs was identical
binding to HOIP aa 1-184 (in words) (HOIP 1-184): able to bind
inhibition of NFκB activity induced by wild-type LUBAC (in words) ([3]; HOIL-1 + wild-type HOIP): abrogated NFκB activity
inhibition of NFκB activity induced by HOIP PIM pocket mutants (N102D, Y82A) + HOIL-1 (in words) [3]: less effective in inhibiting activity
inhibition of NFκB activity induced by HOIP PIM pocket mutants (N102D, Y82A) + HOIL-1 (in words) ([3]; listed as wild-type OTULIN): reduced the ability of OTULIN to antagonize LUBAC-induced NFκB activity

OTULIN C129A: catalytically inactive OTULIN C129A mutant (CA)
HOIP autoubiquitination with Met1-linked polyUb (in words) [4]: led to extensive HOIP ubiquitination
HOIP autoubiquitination with Met1-linked polyUb (in words), previously shown [5]: lead to the autoubiquitination of HOIP with Met1-linked polyUb chains
